Test results: US6451797B1, “Muscarinic antagonists” (priority 1998, dated 2002)
Structures can show the parent of a compound that is named as a salt.

Row | Structure (SMILES) | melting point
1 | C[C@@H]1CN(C2CCN(C(=O)c3cccc(Cl)c3N)CC2)CCN1[C@@H](C)c1ccc(S(=O)(=O)c2ccc3c(c2)OCO3)nc1 | 184 to 186 °C
2 | C[C@@H]1CN(C2CCN(C(=O)c3cccc4cccnc34)CC2)CCN1[C@@H](C)c1ccc(S(=O)(=O)c2ccc3c(c2)OCO3)nc1 | 174 °C
3 | C[C@@H]1CN(C2CCN(C(=O)c3ccccc3N)CC2)CCN1[C@@H](C)c1ccc(S(=O)(=O)c2ccc3c(c2)OCO3)nc1 | 187 to 188 °C
4 | C[C@@H]1CN(C2CCN(C(=O)c3cccc4c(F)cc(F)cc34)CC2)CCN1[C@@H](C)c1ccc(S(=O)(=O)c2ccc3c(c2)OCO3)nc1 | 172 to 174 °C
5 | CNc1ccccc1C(=O)N1CCC(N2CCN(Cc3ccc(S(=O)(=O)c4cccc(C)c4)nc3)[C@H](C)C2)CC1 (as salt: HCl) | 144 to 148 °C (dec.)
6 | Cc1cccc(C)c1C(=O)N1CCC(N2CCN([C@@H](C)c3ccc(S(=O)(=O)c4ccc5c(c4)OCO5)nc3)[C@H](C)C2)CC1 | 165 °C
